Laboratory results reported in ChEMBL document CHEMBL4184334, “From Cancer to Pain Target by Automated Selectivity Inversion of a Clinical Candidate” (J Med Chem, 2018).
Calls of active or inactive are those of the source. No cut-off for these calls is given here.

Tests used:
Aurora kinase A = target: T1, Aurora kinase A (Homo sapiens, UniProt O14965); assay: Inhibition of DNA-tagged human partial length AURKA expressed in mammalian expression system at 100 nM by qPCR method; conditions: 0.1 µM
T1 sequence (O14965 whole entry): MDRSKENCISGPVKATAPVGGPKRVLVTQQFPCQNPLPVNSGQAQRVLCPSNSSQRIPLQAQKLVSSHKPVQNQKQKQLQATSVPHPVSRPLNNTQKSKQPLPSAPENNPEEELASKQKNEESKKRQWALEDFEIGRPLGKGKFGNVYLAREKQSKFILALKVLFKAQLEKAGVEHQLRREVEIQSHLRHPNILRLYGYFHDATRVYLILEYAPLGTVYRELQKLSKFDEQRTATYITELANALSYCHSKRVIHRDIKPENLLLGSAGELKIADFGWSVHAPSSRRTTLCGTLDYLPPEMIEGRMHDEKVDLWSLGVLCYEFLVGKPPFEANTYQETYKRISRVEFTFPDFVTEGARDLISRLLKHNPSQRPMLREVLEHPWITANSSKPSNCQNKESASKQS

[1] = target: BDNF/NT-3 growth factors receptor (Homo sapiens) (UniProt Q16620); assay: Inhibition of DNA-tagged human partial length TrkB expressed in mammalian expression system at 100 nM by qPCR method
BDNF/NT-3 growth factors receptor (Homo sapiens), sequence (Q16620 32-822 limits assumed): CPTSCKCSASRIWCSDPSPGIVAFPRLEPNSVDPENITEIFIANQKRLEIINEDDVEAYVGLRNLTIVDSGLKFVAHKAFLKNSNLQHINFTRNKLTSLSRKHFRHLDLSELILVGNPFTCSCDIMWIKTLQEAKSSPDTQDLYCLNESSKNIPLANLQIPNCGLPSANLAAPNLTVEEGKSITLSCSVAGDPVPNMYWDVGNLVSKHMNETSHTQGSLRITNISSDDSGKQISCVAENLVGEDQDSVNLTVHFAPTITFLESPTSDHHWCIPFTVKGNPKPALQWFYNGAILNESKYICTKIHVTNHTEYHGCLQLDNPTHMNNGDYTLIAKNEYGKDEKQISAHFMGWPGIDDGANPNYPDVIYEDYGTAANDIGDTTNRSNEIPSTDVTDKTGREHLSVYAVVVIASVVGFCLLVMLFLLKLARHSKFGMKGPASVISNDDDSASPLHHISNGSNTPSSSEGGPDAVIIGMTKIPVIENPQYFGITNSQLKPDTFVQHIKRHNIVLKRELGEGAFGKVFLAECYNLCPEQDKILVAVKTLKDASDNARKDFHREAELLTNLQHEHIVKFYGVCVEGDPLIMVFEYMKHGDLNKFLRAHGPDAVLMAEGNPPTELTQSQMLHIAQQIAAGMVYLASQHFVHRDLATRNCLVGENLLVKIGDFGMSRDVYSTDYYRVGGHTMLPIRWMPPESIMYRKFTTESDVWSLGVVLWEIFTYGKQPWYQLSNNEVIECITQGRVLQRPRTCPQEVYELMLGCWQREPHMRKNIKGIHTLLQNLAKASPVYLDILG

[2] = target: Platelet-derived growth factor receptor beta (Homo sapiens) (UniProt P09619); assay: Inhibition of DNA-tagged human partial length PDGFRB expressed in mammalian expression system at 100 nM by qPCR method
Platelet-derived growth factor receptor beta (Homo sapiens), sequence (P09619 whole entry): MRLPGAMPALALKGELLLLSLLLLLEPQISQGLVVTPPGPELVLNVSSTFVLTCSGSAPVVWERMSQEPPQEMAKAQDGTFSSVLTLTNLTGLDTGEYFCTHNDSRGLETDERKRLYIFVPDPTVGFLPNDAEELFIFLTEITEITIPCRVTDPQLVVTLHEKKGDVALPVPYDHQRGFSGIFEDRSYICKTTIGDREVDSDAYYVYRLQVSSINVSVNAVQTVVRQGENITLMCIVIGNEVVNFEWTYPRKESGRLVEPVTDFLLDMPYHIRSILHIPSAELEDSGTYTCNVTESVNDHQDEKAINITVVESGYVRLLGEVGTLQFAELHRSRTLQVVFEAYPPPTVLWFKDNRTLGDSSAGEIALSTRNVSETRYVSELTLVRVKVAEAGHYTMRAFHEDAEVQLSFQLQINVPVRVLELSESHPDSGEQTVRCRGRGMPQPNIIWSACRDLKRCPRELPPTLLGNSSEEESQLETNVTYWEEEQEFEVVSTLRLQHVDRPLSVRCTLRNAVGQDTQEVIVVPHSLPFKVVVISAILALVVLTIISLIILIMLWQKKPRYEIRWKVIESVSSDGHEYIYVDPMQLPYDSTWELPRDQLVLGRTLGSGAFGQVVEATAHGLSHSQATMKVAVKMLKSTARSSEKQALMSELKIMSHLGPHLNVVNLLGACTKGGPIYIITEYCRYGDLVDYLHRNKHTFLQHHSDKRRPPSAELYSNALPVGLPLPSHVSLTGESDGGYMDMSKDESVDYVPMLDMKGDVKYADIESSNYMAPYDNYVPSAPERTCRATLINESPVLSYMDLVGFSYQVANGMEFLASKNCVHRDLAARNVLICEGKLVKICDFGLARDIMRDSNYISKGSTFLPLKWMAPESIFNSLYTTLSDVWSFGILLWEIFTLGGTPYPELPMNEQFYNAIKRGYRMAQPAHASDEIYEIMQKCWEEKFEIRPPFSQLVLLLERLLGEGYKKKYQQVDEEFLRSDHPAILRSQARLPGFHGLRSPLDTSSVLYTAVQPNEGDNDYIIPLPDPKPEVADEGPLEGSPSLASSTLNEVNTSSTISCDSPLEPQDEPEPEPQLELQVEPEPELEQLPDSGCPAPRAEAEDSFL

[3] = target: NT-3 growth factor receptor (Homo sapiens) (UniProt Q16288); assay: Inhibition of DNA-tagged human partial length TrkC expressed in mammalian expression system at 100 nM by qPCR method
NT-3 growth factor receptor (Homo sapiens), sequence (Q16288 32-839 limits assumed): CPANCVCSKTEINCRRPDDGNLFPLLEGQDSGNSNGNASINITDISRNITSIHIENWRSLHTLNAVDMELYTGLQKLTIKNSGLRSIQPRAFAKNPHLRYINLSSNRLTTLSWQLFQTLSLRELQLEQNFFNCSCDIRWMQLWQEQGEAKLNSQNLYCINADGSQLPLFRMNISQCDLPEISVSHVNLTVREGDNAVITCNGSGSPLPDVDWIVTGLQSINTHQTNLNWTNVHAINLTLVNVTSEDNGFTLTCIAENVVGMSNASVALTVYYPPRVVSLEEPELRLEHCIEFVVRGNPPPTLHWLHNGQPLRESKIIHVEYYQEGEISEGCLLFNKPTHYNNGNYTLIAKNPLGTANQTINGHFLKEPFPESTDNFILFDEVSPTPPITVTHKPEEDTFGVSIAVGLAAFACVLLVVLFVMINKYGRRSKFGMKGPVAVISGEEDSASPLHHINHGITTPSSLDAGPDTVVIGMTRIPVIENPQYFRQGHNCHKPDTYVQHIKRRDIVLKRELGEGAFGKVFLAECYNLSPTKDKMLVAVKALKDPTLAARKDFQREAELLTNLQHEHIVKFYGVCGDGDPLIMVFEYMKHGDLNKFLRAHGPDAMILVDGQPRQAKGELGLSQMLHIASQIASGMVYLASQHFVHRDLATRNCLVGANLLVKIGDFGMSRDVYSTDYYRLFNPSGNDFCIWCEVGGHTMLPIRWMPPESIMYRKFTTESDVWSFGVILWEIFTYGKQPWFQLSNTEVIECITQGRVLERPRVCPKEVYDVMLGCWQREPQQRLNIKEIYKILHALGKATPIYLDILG

[4] = target: Proto-oncogene tyrosine-protein kinase receptor Ret (Homo sapiens) (UniProt P07949); assay: Inhibition of DNA-tagged human partial length RET expressed in bacterial expression system at 100 nM by qPCR method
Proto-oncogene tyrosine-protein kinase receptor Ret (Homo sapiens), sequence (P07949 whole entry): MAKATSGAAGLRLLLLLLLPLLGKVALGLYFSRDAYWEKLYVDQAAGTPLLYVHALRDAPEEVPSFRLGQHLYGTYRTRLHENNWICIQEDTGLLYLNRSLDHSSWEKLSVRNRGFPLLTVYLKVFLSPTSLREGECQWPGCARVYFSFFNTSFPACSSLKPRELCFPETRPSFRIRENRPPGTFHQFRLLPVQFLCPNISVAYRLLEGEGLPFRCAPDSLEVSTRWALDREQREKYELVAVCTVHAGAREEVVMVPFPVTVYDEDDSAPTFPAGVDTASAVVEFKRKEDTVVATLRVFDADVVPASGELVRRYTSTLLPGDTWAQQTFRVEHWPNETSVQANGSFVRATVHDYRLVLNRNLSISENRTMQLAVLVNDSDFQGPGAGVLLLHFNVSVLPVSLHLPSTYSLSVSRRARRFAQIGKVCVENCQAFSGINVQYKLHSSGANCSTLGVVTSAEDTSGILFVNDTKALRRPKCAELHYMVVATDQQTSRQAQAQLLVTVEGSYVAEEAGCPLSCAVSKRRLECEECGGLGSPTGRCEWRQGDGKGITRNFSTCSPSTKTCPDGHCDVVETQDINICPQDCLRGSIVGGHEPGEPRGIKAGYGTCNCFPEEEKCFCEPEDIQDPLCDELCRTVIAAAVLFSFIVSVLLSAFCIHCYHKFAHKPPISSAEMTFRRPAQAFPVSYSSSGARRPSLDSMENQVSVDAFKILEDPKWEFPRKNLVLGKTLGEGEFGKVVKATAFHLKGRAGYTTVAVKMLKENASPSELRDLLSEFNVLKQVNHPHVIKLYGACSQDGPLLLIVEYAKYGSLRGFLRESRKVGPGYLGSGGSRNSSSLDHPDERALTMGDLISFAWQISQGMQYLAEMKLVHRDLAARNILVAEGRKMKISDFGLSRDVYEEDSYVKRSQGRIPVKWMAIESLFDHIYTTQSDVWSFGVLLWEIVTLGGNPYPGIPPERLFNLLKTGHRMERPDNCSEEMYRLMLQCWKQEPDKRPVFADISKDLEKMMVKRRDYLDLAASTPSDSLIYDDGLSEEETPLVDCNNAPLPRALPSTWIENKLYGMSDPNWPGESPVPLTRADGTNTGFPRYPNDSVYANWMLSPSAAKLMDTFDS

Homo sapiens = species on record: Homo sapiens; assay: Selectivity ratio of Kd for DNA-tagged human partial length AURKA to Kd for DNA-tagged human partial length TrkA
[5] = target: Tyrosine-protein kinase ABL1 (Homo sapiens, UniProt P00519); assay: Inhibition of DNA-tagged human nonphosphorylated partial length ABL1 expressed in mammalian expression system at 100 nM by qPCR method; conditions: 0.1 µM
[6] = target: High affinity nerve growth factor receptor (Homo sapiens) (UniProt P04629); assay: Inhibition of DNA-tagged human partial length TrkA expressed in mammalian expression system assessed as remaining activity at 100 nM by qPCR method
[7] = target: Mast/stem cell growth factor receptor Kit (Homo sapiens) (UniProt P10721); assay: Inhibition of DNA-tagged human partial length KIT expressed in bacterial expression system at 100 nM by qPCR method
[8] = target: Tyrosine-protein kinase ABL1 (Homo sapiens, UniProt P00519, T315I); assay: Inhibition of DNA-tagged human phosphorylated partial length ABL1 T315I mutant expressed in mammalian expression system at 100 nM by qPCR method; conditions: 0.1 µM
[9] = target: Tyrosine-protein kinase JAK2 (Homo sapiens, UniProt O60674); assay: Inhibition of DNA-tagged human partial length JAK2 JH1 domain-catalytic expressed in mammalian expression system at 100 nM by qPCR method; conditions: 0.1 µM
Tyrosine-protein kinase JAK2, sequence (O60674 whole entry, the tested form may be a part): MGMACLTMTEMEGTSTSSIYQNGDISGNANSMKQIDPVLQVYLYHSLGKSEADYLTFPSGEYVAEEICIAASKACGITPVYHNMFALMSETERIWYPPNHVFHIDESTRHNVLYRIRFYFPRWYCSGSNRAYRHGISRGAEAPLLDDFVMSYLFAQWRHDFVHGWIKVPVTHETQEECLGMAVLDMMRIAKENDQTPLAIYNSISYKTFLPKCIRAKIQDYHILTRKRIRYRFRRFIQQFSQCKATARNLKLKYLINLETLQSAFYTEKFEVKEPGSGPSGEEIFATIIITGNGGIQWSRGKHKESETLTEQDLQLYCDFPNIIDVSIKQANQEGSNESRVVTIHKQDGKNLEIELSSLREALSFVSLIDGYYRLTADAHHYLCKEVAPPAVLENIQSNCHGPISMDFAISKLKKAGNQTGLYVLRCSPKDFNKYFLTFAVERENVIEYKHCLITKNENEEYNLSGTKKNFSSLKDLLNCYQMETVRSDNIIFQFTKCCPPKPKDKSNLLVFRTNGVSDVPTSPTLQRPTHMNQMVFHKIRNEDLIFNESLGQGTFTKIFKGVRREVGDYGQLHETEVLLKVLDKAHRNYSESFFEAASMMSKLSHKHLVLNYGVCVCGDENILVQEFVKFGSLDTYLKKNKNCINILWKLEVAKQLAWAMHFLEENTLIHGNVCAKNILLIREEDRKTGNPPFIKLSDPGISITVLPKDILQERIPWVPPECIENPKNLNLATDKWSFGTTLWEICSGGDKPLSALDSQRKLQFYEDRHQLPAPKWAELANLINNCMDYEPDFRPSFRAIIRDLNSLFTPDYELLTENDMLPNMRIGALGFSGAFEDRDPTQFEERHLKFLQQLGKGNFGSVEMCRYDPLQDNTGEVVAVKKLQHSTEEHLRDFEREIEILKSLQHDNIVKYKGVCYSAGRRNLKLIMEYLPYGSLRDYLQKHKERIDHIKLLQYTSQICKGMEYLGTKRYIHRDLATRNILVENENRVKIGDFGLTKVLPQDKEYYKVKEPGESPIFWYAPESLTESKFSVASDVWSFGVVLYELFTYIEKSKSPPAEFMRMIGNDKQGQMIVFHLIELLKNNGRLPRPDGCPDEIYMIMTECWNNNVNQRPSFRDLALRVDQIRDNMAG

[10] = target: T2, Tyrosine-protein kinase JAK3 (Homo sapiens) (UniProt P52333); assay: Inhibition of DNA-tagged human partial length JAK3 JH1 domain-catalytic expressed in mammalian expression system at 100 nM by qPCR method
T2 sequence (whole entry): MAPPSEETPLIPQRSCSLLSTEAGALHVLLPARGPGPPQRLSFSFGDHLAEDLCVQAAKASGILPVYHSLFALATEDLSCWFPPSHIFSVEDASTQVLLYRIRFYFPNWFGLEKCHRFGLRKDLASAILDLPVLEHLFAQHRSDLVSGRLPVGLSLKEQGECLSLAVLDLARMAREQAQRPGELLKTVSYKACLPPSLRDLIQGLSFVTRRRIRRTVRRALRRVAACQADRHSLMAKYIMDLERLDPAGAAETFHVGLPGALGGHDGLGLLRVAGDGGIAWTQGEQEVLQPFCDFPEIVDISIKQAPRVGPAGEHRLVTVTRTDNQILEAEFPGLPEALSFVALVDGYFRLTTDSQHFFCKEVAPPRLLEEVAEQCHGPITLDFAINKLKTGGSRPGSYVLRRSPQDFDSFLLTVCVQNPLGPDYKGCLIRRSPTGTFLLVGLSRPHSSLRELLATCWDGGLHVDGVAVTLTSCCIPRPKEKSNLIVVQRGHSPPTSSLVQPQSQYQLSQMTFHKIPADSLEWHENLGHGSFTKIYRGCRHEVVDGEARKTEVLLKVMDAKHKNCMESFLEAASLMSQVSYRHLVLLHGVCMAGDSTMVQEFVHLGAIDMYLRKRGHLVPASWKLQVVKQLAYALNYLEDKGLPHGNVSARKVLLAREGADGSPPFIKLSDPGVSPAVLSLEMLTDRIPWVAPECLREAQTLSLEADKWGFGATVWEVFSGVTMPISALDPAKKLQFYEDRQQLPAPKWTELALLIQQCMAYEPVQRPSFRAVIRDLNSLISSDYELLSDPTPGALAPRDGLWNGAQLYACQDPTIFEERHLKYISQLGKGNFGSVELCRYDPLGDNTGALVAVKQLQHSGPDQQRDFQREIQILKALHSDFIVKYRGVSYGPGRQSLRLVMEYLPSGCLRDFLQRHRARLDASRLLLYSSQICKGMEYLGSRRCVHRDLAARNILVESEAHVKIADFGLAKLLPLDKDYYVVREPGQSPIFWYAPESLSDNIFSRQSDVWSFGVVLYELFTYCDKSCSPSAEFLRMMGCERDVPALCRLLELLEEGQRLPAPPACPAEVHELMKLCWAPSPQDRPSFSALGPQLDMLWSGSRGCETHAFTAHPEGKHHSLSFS

SMILES | inhibition [1] | inhibition [2] | inhibition [3] | inhibition [4] | further results
CN1CCN(c2cc(Nc3cc(C(C)(C)C)[nH]n3)nc(Sc3ccccc3)n2)CC1 | – | – | – | – | inhibition (INH) (Aurora kinase A): Not Active
Cc1ccc(CSc2nc(Nc3cc(C)[nH]n3)cc(N3CCN(C)CC3)n2)cc1 | inactive | inactive | inactive | – | –
Cc1cc(Nc2cc(N3CCN(C)CC3)nc(Sc3ccc(NC(=O)C4CC4)cc3)n2)n[nH]1 | – | – | – | Active | –
CN1CCN(c2cc(Nc3cc(-c4cccc(F)c4)[nH]n3)nc(Sc3ccccc3)n2)CC1 | Active | Active | Active | Active | Selectivity ratio (Homo sapiens): 1000; inhibition (INH) [5]: Not Active; Activity [6]: < 1%; inhibition [7]: Active; inhibition (INH) [8]: Not Active; inhibition (INH) [9]: Not Active; inhibition [10]: inactive
